Laboratory results from patent US12727608B2, “Stable liquid animal feed ingredient” (PURAC BIOCHEM B.V., priority 2020, dated 2026).

Columns and labels:
Type in all cases: cell-based
Conditions in all cases: Experiment 2; 72 hours at 30° C.
[1] = tested on: Streptococcus suis DSM 9682; experiment: MIC determination (Bioscreen growth)
[2] = tested on: Streptococcus suis DSM 28762; experiment: MIC determination (Bioscreen growth)
[3] = tested on: Clostridium perfringens ATCC 13124

Measured: MIC value

CC(O)CO (stereo not drawn) [MPG, 1,2-propanediol]
>405 ppm: all assays above
